Assay results published in US5028733A, “Prostaglandins” (National Research Development Corporation, priority 1980, dated 1991).
Values joined by “and” are separate entries in the source; they are usually repeats but may differ in a detail not shown here. Equal entries are not always repeated.

Key:
[1] = tested on: platelet aggregation (collagen); test: In vivo inhibition of platelet aggregation in guinea pigs (collagen); parameters: species or system male albino guinea pig
Method: (§1) The technique employed in this test was basically that of Smith and Freuler, Bibl. anat., 1973, 12, 229-234, which utilises the Technicon Autocounter and provides a completely automated system for counting platelets and cells. Blood is continuously sampled from a suitable artery and to avoid the use of an anticoagulant, a double cannula is used which enables 3.8%, w/v aqueous trisodium citrate to be pumped to the tip of the cannula and the citrated blood then to be removed at 0.1 ml/minute and diluted in the manifold where the red cells are lysed with 1% w/v ammonium oxalate/0.002% w/v saponin solution. The platelets are then counted optically and the count continuously recorded on precalibrated chart paper.
(§2) In three experiments, each conducted on one male albino guinea pig ([…]) anaesthetised with a mixture of allyl barbituric acid and urethane, the guinea pig was given intravenously a dose of 50 μg/kg of collagen, followed 15 minutes later by 0.35 μg/kg of 11,9-(epoxymethane) PGH2 to give two reliable platelet aggregation responses for each material. After a further period of 10 minutes, the guinea pig was treated intravenously with a dose of 1 mg/kg of 5-endo-(6'-carboxyhex-2'Z-enyl)-6-exo{1'-[N-(phenylthiocarbamoyl)hydrazono]-ethyl}-bicyclo [2,2,1] heptane prepared as described in Example 2. Commencing 5 minutes after the administration of the bicyclo [2,2,1] heptane, the alternate treatments at 15 minute intervals with collagen and 11,9-(epoxymethano) PGH2 were repeated, the second treatment with the latter compound being followed after 15 minutes by a final treatment with collagen. (In the first experiment, only, the last administration of each compound was omitted).

rabbit aorta [2] = test: Block of the contractile action of noradrenaline in the rabbit aorta strip test; type: cell-based; settings: in words
[3] = tested on: bronchoconstriction (PGH2 derivative); test: Modified Konzett-Rossler test, inhibition of bronchoconstriction by 11,9-(epoxymethano) PGH2; type: in vivo, guinea pig; settings: 5 min after compound; 1 mg/kg i.v.; insufflation pressure
Method: as §2
(§3) The same three experiments on guinea pigs described under 1(b) are used to give a measure in a modified Konzett-Rossler test of the inhibition produced by 5-endo-(6'-carboxyhex-2'Z-enyl)-6-exo{1'[N-(phenylthiocarbamoyl)-hydrazono]ethyl}-bicyclo [2,2,1] heptane, prepared as described in Example 2, of the bronchoconstriction resulting from administration of the collagen and the PGH2 derivative. […]

[4] = tested on: platelet aggregation (11,9-(epoxymethano) PGH2); test: In vivo inhibition of platelet aggregation in guinea pigs (11,9-(epoxymethano) PGH2); parameters: species or system male albino guinea pig
Method: as §1, with “paper. In three experiments, each conducted on one male albino guinea pig ([…]) anaesthetised with a mixture of allyl barbituric acid and urethane, the guinea pig was given intravenously a dose of 50 μg/kg of collagen, followed 15 minutes later by 0.35 μg/kg of 11,9-(epoxymethane) PGH2 to give two reliable platelet aggregation responses for each material. […] (In the first experiment, only, the last administration of each compound was omitted).” for “paper.”

rabbit aorta [5] = test: Rabbit aorta strip, antagonism of contraction by 11,9-(epoxymethano) PGH2 (affinity constant KB); type: cell-based; settings: in words
Method: Spiral strips of thoracic aorta are suspended in Kreb's-Henseleit solution and aerated with 95% O2 /5% CO2 at 37° C. Tension changes are recorded with a Glass FTO3 force transducer. Initially, cumulative dose response curves to 11,9-(epoxymethano) PGH2 (2×10^-9, 1×10^-8, 5×10^-8 and 2.5×10^-7 M) are obtained. In a second experiment the individual compounds are added 30 minutes previous to the addition of the series of agonist doses. In the case of each compound, the affinity constant, KB, for the compound is calculated according to the Gaddum - Schild Equation (based on Law of Mass Action).
(§4) [B]=molar concentration of compound

[6] = tested on: platelet aggregation (collagen); test: In vivo inhibition of platelet aggregation in rats (collagen); parameters: species or system male Sprague-Dawley rats; settings: for Percentage Fall in platelet count on administering collagen, After, mean: mean of 6 rats, compound 1 mg/kg i.v.
Method: as §1
Each of a group of six male Sprague-Dawley rats anaesthetised with pentabarbitone was injected intravenously with 40 μg/kg of collagen followed, 15 minutes later, by 80 μg/kg of collagen, which gives a dose-dependent and reproducible fall in platelet count. Ten minutes after the second injection of collagen, the rats were treated intravenously with a dose of 1 mg/kg of 5-endo-(6'-carboxyhex-2'Z-enyl)-6-exo-{1'-[N-(phenylthiocarbamoyl)-hydrazono]ethyl}-bicyclo [2,2,1] heptane prepared as described in Example 2. At 5 and 20 minutes after the administration of this compound a further 40 μg/kg and 80 μg/kg of collagen, respectively, were administered. The levels of platelet aggregation resulting from the administration of the collagen before and after the administration of the bicyclo [2,2,1] heptane were recorded continuously as indicated above.

platelet = test: Block of the aggregatory action of arachidonic acid on platelets; type: cell-based; settings: in words
[7] = tested on: bronchoconstriction (collagen); test: Modified Konzett-Rossler test, inhibition of bronchoconstriction by collagen; type: in vivo, guinea pig; settings: 5 min after compound; 1 mg/kg i.v.; insufflation pressure
Method: as §2, §3

human platelets = molecular target: T1, human platelets (Homo sapiens, UniProt P21731); test: Human platelet system, antagonism of aggregation by 11,9-(epoxymethano) PGH2 (affinity constant KB); type: cell-based; settings: in words
T1 construct: Platelet-rich plasma is obtained from fresh, citrated human blood; endogenous in cells; host or cells: human platelets in platelet-rich plasma
T1 sequence (P21731 1-343): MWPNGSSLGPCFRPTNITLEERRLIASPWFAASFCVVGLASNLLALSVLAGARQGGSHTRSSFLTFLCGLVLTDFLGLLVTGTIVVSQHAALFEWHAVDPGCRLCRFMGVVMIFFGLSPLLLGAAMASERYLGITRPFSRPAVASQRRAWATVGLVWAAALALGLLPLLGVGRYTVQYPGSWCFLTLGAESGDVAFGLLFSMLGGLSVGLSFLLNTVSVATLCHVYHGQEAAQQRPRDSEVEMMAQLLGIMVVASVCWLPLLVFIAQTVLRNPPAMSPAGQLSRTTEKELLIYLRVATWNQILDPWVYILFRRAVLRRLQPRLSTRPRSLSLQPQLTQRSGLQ
Method: Platelet-rich plasma is obtained from fresh, citrated human blood. Addition of the 11,9-(epoxymethano) PGH2 (1×10^-7 to 5×10^-7 M) causes immediate aggregation recorded as an increase in light transmission (600 nm). In a second experiment the individual compounds are added five minutes previous to the addition of the PGH2 analogue. The dose of the PGH2 analogue added is then increased to a level which gives a similar response to that obtained in the absence of antagonist. The affinity constant, KB, for the compound is calculated according to the Gaddum - Schild Equation (based on Law of Mass Action).
as §4

[8] = collagen 50 μg/kg, average of experiments
[9] = PGH2 deriv. 0.35 μg/kg, average of experiments

CC(=NNC(=S)Nc1ccccc1)[C@H]1[C@@H]2CC[C@@H](C2)[C@@H]1C/C=C\CCCC(=O)O (relative stereo) [Example 2, 5-endo(6'-Carboxyhex-2'Z-enyl)-6-exo-{1'-[N-(phenylthiocarbamoyl)-hydrazono]-ethyl}-bicyclo [2,2,1] heptane]
Percentage Inhibition of platelet aggregation, 5 min ([1]; collagen 50 μg/kg, 5 min after 1 mg/kg i.v. compound, single animal): 73.6 Percentage and 64.5 Percentage and 68.3 Percentage | Percentage Inhibition of platelet aggregation, 35 min ([1]; collagen 50 μg/kg, 35 min after 1 mg/kg i.v. compound, single animal): 67.3 Percentage and 64.4 Percentage and 56.1 Percentage | Percentage Inhibition of platelet aggregation, 65 min ([1]; collagen 50 μg/kg, 65 min after 1 mg/kg i.v. compound, single animal): 56.1 Percentage and 51.5 Percentage | Percentage Inhibition of platelet aggregation, 5 min, Average [1, 8]: 68.8 Percentage | Percentage Inhibition of platelet aggregation, 35 min, Average [1, 8]: 62.6 Percentage | Percentage Inhibition of platelet aggregation, 65 min, Average [1, 8]: 53.8 Percentage | platelet aggregation produced by collagen, in words ([1]; guinea pig, 1 mg/kg i.v.): caused an inhibition of the platelet aggregation | contractile action of noradrenaline (α-adrenoceptors) (rabbit aorta [2]): do not block the contractile action of noradrenaline | inhibition of the bronchoconstricting effect of the PGH2 derivative [3]: complete inhibition | Percentage Inhibition of platelet aggregation, 20 min ([4]; PGH2 deriv. 0.35 μg/kg, 20 min after 1 mg/kg i.v. compound, single animal): 75.7 Percentage and 85.2 Percentage and 83.7 Percentage | Percentage Inhibition of platelet aggregation, 50 min ([4]; PGH2 deriv. 0.35 μg/kg, 50 min after 1 mg/kg i.v. compound, single animal): 65.5 Percentage and 64.6 Percentage | Percentage Inhibition of platelet aggregation, 20 min, Average [4, 9]: 81.5 Percentage | Percentage Inhibition of platelet aggregation, 50 min, Average [4, 9]: 65.1 Percentage | platelet aggregation produced by 11,9-(epoxymethano) PGH2, in words ([4]; guinea pig, 1 mg/kg i.v.): caused an inhibition of the platelet aggregation | antagonist in the rabbit aorta strip test (rabbit aorta [5]): pure antagonists in the rabbit aorta strip test | average response to collagen ([6]; 40 μg/kg collagen, before vs after compound 1 mg/kg i.v.): significantly reduced | P, one tailed paired t-test, reduction of average response ([6]; 40 μg/kg collagen, t=2.25 (5Df)): < 0.05 | Percentage Fall in platelet count on administering collagen, After, individual rat ([6]; collagen 40 μg/kg i.v., 5 min after 1 mg/kg i.v. compound): 14.0 Percentage and 13.3 Percentage and 14.6 Percentage and 25.0 Percentage and 18.5 Percentage and 19.4 Percentage | Percentage Fall in platelet count on administering collagen, After, mean ([6]; collagen 40 μg/kg): 17.47 Percentage | Percentage Fall in platelet count on administering collagen, After, individual rat ([6]; collagen 80 μg/kg i.v., 20 min after 1 mg/kg i.v. compound): 18.3 Percentage and 27.1 Percentage and 28.4 Percentage and 34.4 Percentage and 34.5 Percentage and 28.2 Percentage | Percentage Fall in platelet count on administering collagen, After, mean ([6]; collagen 80 μg/kg): 28.5 Percentage | aggregatory action of arachidonic acid (platelet): block the aggregatory action of arachidonic acid | inhibition of the bronchoconstricting effect of collagen [7]: complete inhibition | antagonist in the platelet test (human platelets): antagonists in the platelet test
